Experimental data: patent publication EP2296651B1, “5-HYDROXYMETHYL-OXAZOLIDIN-2-ONE DERIVATIVES FOR TREATING BACTERIAL INTESTINAL DISEASES” (Actelion Pharmaceuticals Ltd., priority 2008, dated 2009)
In brackets after ≈: the same amount, converted by molar mass.

Experiments:
[1] = test system: Finegoldia magna A-1254 DSM 20470; test: Agar dilution MIC, anaerobic strains; format: cell-based
[2] = test system: E. faecium A 949; test: Broth microdilution MIC, aerobic Gram-positive bacteria; details: Enterococcus faecium, A949, 48 h
[3] = test system: Bacteroides fragilis A-293 B 2518; test: Agar dilution MIC, anaerobic strains; format: cell-based; details: A293B2518, 48 h
[4] = test system: C. difficile A-1050 (ATCC 43596); test: Spore formation at sub-MIC concentrations; format: cell-based; details: 0.5x the MIC; 4 days anaerobic incubation at 37°C
[5] = test system: Bacteroides fragilis A-502 T 7403; test: Agar dilution MIC, anaerobic strains; format: cell-based; details: A502T7403, 48 h
[6] = test system: toxigenic C difficile strain 10465; test: C. difficile hamster model; format: in vivo, Golden Syrian hamsters
Method: Golden Syrian hamsters were given a single injection of clindamycin phosphate (10 mg/kg s.c.), and a day later animals were infected by gavage with 10^5 CFU of toxigenic C difficile strain 10465. A fulminant colitis results in the majority (∼95%) of animals and develops 1 to 2 days after the administration of C. difficile. Untreated, the colitis progresses rapidly and turns into severe colitis, hemorrhagic necrosis of the cecum and death. The compound of Example 1 was administered orally as a suspension at three dosage levels (10 mg/kg, 30 mg/kg and 100 mg/kg; n = 10 per group). Vancomycin (50 mg/kg) was used as a control. Animals were treated once daily for 5 days and afterwards maintain under observation for an additional 21 days.
The animals were observed three times daily for morbidity and presence or absence of diarrhoea. The final endpoint of the study was survival. Animals judged to be in a moribund state [extended period of weight loss progressing to an emaciated state, anorexia for 24-48 h, prolonged lethargy (more than 3 days), signs of paralysis, skin erosions or trauma, hunched posture, distended abdomen] were euthanized by a single injection of sodium pentobarbital.

[7] = test system: E. faecium H 7937; test: Broth microdilution MIC, aerobic Gram-positive bacteria; details: Enterococcus faecium, H7937, 48 h
[8] = test system: E. faecium H 9070; test: as above; details: Enterococcus faecium, H9070, 48 h
[9] = test system: Fusobacterium necrophorum A-1260 DSM 20698; test: Agar dilution MIC, anaerobic strains; format: cell-based; details: DSM20698, 48 h
[10] = test system: E. faecium H 7965; test: Broth microdilution MIC, aerobic Gram-positive bacteria; details: Enterococcus faecium, H7965, 48 h
[11] = test system: Bifidobacterium bifidum A-1258 DSM 20456; test: Agar dilution MIC, anaerobic strains; format: cell-based; details: DSM20456, 48 h
[12] = test system: Bacteroides ovatus A-991 ATCC 8483; test: Agar dilution MIC, anaerobic strains; format: cell-based; details: ATCC8483, 48 h
[13] = test system: Bacteroides fragilis A-294 T 9174; test: Agar dilution MIC, anaerobic strains; format: cell-based; details: A294T9174, 48 h
[14] = test system: 209 diverse clinical isolates of C. difficile; test: CLSI agar dilution MIC, clinical isolates; format: cell-based, Clostridium difficile; details: Clostridioides difficile, 48 h; 209 clinical isolates of C. difficile; read-out: MIC90
[15] = test system: E. faecalis H 7094; test: Broth microdilution MIC, aerobic Gram-positive bacteria; details: Enterococcus faecalis, H7094, 48 h
[16] = test system: S. aureus A-798 (MRSA); test: as above; details: Staphylococcus aureus, 48 h
[17] = test system: Bacteroides fragilis A-348 T 8673; test: Agar dilution MIC, anaerobic strains; format: cell-based; details: A348T8673, 48 h
[18] = test system: Eubacterium limosum A-1259 DSM 20698; test: Agar dilution MIC, anaerobic strains; format: cell-based
[19] = test system: Bifidobacterium adolescentis A-1257 DSM 20083; test: Agar dilution MIC, anaerobic strains; format: cell-based; details: DSM20083, 48 h
[20] = test system: C. difficile strain NC 13366; format: cell-based; details: 1 and 8 µg/ml; supernatants at day 5; high density stationary phase cultures
[21] = test system: Bacteroides fragilis A-217 B 6306; test: Agar dilution MIC, anaerobic strains; format: cell-based; details: A217B6306, 48 h
[22] = test system: Bacteroides fragilis A-260 T 9865; test: Agar dilution MIC, anaerobic strains; format: cell-based; details: A260T9865, 48 h
[23] = test system: S. aureus ATCC 29213; test: Broth microdilution MIC, aerobic Gram-positive bacteria; details: Staphylococcus aureus, ATCC29213, 48 h
[24] = test system: Bacteroides vulgatus A-989 ATCC 8482; test: Agar dilution MIC, anaerobic strains; format: cell-based; details: Phocaeicola vulgatus, ATCC8482, 48 h
[25] = test system: E. faecalis H 7460; test: Broth microdilution MIC, aerobic Gram-positive bacteria; details: Enterococcus faecalis, H7460, 48 h
[26] = test system: Lactococcus lactis A-1256 DSM 20069; test: Agar dilution MIC, anaerobic strains; format: cell-based
[27] = test system: S. aureus ATCC 43300 (MRSA); test: Broth microdilution MIC, aerobic Gram-positive bacteria; details: Staphylococcus aureus, 48 h
[28] = test system: C. difficile ATCC 43596; test: Broth microdilution MIC, anaerobic; format: cell-based, Clostridium difficile; details: Clostridioides difficile, ATCC43596, 48h at 37°C, read-out: MIC regarding C. difficile ATCC 43596
[29] = 100 mg/kg orally once daily for 5 days

O=C(O)c1cn(C2CC2)c2cc(N3CCC(O)(COc4ccc(N5C[C@H](CO)OC5=O)cc4F)CC3)c(F)cc2c1=O [Example 1, 1-cyclopropyl-6-fluoro-7-{4-[2-fluoro-4-((R)-5-hydroxymethyl-2-oxo-oxazolidin-3-yl)-phenoxymethyl]-4-hydroxy-piperidin-1-yl}-4-oxo-1,4-dihydro-quinoline-3-carboxylic acid]
MIC ([1]; DSM20470, 48 h, Finegoldia magna A-1254, DSM 20470): 0.25 µg/mL (≈ 0.427 µM) | less activity against Finegoldia magna A-1254 compared to the compound of Example 5 of WO 2005/058888 ([1]; versus R1): 4 times | MIC [2]: 1 µg/mL (≈ 1.71 µM) | MIC [3]: 4 µg/mL (≈ 6.83 µM) | spores of total cell count [4]: < 1% | MIC [5]: 4 µg/mL (≈ 6.83 µM) | survival during the 5 day treatment period ([6]; 10 mg/kg orally once daily for 5 days): all | survival during the 5 day treatment period ([6]; 30 mg/kg orally once daily for 5 days): all | animals survived without relapse, relapse phase of 21 days after treatment [6, 29]: 100% | survival during the 5 day treatment period [6, 29]: all | MIC [7]: 0.25 µg/mL (≈ 0.427 µM) | MIC [8]: 1 µg/mL (≈ 1.71 µM) | MIC [9]: 1 µg/mL (≈ 1.71 µM) | MIC [10]: 0.5 µg/mL (≈ 0.854 µM) | MIC [11]: 0.5 µg/mL (≈ 0.854 µM) | MIC [12]: 16 µg/mL (≈ 27.3 µM) | MIC [13]: 4 µg/mL (≈ 6.83 µM) | MIC90 [14]: 0.25 µg/mL (≈ 0.427 µM) | MIC [15]: 0.5 µg/mL (≈ 0.854 µM) | MIC [16]: 0.25 µg/mL (≈ 0.427 µM) | MIC [17]: 2 µg/mL (≈ 3.42 µM) | MIC ([18]; DSM20698, 48 h, Eubacterium limosum A-1259, DSM 20698): 1 µg/mL (≈ 1.71 µM) | less activity against Eubacterium limosum A-1259 compared to the compound of Example 5 of WO 2005/058888 ([18]; versus R1): 4 times | MIC [19]: 0.5 µg/mL (≈ 0.854 µM) | de novo toxin A production [20]: inhibited de novo toxin A production | MIC [21]: 4 µg/mL (≈ 6.83 µM) | MIC [22]: 4 µg/mL (≈ 6.83 µM) | MIC [23]: 0.25 µg/mL (≈ 0.427 µM) | MIC [24]: 2 µg/mL (≈ 3.42 µM) | MIC [25]: 1 µg/mL (≈ 1.71 µM) | MIC ([26]; DSM20069, 48 h, Lactococcus lactis A-1256, DSM 20069): 0.5 µg/mL (≈ 0.854 µM) | less activity against Lactococcus lactis A-1256 compared to the compound of Example 5 of WO 2005/058888 ([26]; versus R1): 8 times | MIC [27]: 0.25 µg/mL (≈ 0.427 µM) | MIC [28]: 0.125 µg/mL (≈ 0.213 µM)
